# Measured values taken from patent US20030232986A1, “Inhibitors of caspases” (Vertex Pharmaceuticals Incorporated, priority 1998, published 2003).
# Biological target: T1, Caspase-1 (Homo sapiens, UniProt P29466)
# T1 sequence (P29466 120-297 limits assumed): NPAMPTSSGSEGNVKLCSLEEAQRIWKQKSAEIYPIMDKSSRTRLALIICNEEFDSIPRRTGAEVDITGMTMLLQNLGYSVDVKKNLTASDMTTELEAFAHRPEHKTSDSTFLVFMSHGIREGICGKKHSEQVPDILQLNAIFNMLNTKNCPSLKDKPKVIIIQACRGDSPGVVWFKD
# T1 sequence (P29466 317-404 limits assumed): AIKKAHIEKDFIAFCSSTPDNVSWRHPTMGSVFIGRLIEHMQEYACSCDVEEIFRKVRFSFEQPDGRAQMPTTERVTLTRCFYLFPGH
# Assay: Caspase-1 enzyme inhibition (Ki)
# Type: biochemical
# Details: not given
# How it was run: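 Ki obtained by fitting rate versus inhibitor concentration to the Morrison tight-binding equation for competitive inhibitors, with pNA release read at 405 nm at 37 °C. Substrate Suc-YVAD-pNA (80 μM final) added after 15 min enzyme–inhibitor preincubation in Tris pH 7.5 buffer with DTT and CHAPS.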
row,Compound,Ki
1,CC(C)[C@H](NC(=O)c1cccc2c1-c1ccccc1C2=O)C(=O)N1CCC[C@H]1C(=O)N[C@H](C=O)CC(=O)O [Example 5k],< 10 nM
2,CC(C)[C@H](NC(=O)c1cc(Cl)c(O)c(Cl)c1)C(=O)N1CCC[C@H]1C(=O)N[C@H](C=O)CC(=O)O [Example 5m],< 10 nM

# Same assay, conditions: substrate Suc-YVAD-pNA 80 μM, 37° C., pH 7.5
row,Compound,Ki
1,CC(C)[C@H](NC(=O)c1nccc2ccccc12)C(=O)N1CCC[C@H]1C(=O)N[C@H](C=O)CC(=O)O [Example 5c],< 10 nM
2,CC(C)[C@H](NC(=O)c1cccc2c1-c1ccccc1C2=O)C(=O)N1CCC[C@H]1C(=O)N[C@H](C=O)CC(=O)O [Example 5k],< 10 nM
3,CC(C)[C@H](NC(=O)c1cc(Cl)c(O)c(Cl)c1)C(=O)N1CCC[C@H]1C(=O)N[C@H](C=O)CC(=O)O [Example 5m],< 10 nM
4,COCC(=O)N1CCN(C(=O)[C@H](C)NC(=O)c2ccc(N)c(Cl)c2)[C@H](C(=O)N[C@H](C=O)CC(=O)O)C1 [Example 18f],10 to 1000 nM
5,O=C[C@H](CC(=O)O)NC(=O)[C@@H]1CCCN1C(=O)[C@H](Cc1cccnc1)NC(=O)c1nccc2ccccc12 [Example 20f],< 10 nM
6,CSC[C@H](NC(=O)c1nccc2ccccc12)C(=O)N1CCC[C@H]1C(=O)N[C@H](C=O)CC(=O)O [Example 20g],< 10 nM
7,CC(C)[C@H](NC(=O)c1nccc2ccccc12)C(=O)N1CC(c2ccccc2)[C@H]1C(=O)N[C@H](C=O)CC(=O)O (stereo partly shown) [Example 24c],< 10 nM
8,CC(C)[C@H](NC(=O)c1nccc2ccccc12)C(=O)N1CC[C@H](C)[C@H]1C(=O)N[C@H](C=O)CC(=O)O [Example 26c],< 10 nM
9,CC(C)[C@H](NC(=O)c1nccc2ccccc12)C(=O)N1C2CCCCC2C[C@H]1C(=O)N[C@H](C=O)CC(=O)O (stereo partly shown) [Example 26e],< 10 nM
10,CC(C)[C@H](NC(=O)c1nccc2ccccc12)C(=O)N1[C@@H](c2ccccc2)CC[C@H]1C(=O)N[C@H](C=O)CC(=O)O [Example 26f],< 10 nM
11,C[C@H](NC(=O)c1ccc(N)c(Cl)c1)C(=O)N1CC(F)(F)C[C@H]1C(=O)N[C@H](C=O)CC(=O)O [Example 27a],10 to 1000 nM
12,C[C@H](NC(=O)[C@@H](NC(=O)c1nccc2ccccc12)C(C)(C)C)C(=O)N[C@H](C=O)CC(=O)O [Example 29g],< 10 nM
13,"COc1ccc(C(=O)NC(C(=O)N2CCCC2C(=O)NC(C=O)CC(=O)O)C(C)C)cc1 (stereo not shown) [Example 57, 3-({1-[2-(4-Methoxy-benzoylamino)-3-methyl-butyryl]-pyrrolidine-2-carbonyl}-amino)-4-oxo-butyric acid]",< 10 nM
14,C[C@H](NC(=O)c1cccc2c1-c1ccccc1C2=O)C(=O)N1CCC[C@H]1C(=O)N[C@H](C=O)CC(=O)O [Example 122a],< 10 nM
